Where two headings read alike, the source gives them in different places.
Assays:
[1] = test system: SARS‐CoV‐2 replication in Vero E6 cells; conditions: cited from earlier work
SARS‐CoV‐2 Mpro [2] = molecular target: T1, SARS‐CoV‐2 Mpro (Severe acute respiratory syndrome coronavirus 2, UniProt P0DTD1); experiment: FRET peptide substrate enzymatic assay; assay type: biochemical; conditions: compound 20 µM; for remaining activity at 20 µM: enzyme 75 nM, substrate 25 µM, read-out: Residual activity (%)
Experimental: The three compounds identified as binders in the MST assay were tested for their inhibitory properties against SARS‐CoV‐2 Mpro at a 20 µM concentration (see Section 4 for details).
Inhibitory activities of the compounds against SARS‐CoV‐2 Mpro were determined as described previously by cleavage of a fluorescence resonance energy transfer (FRET) peptide substrate (Dabcyl‐[…]‐Edans), purchased from Genescript (New Jersey, USA).
Fluorescence measurements were carried out in white flat‐bottom 96‐well plates (Greiner Bio‐One, Kremsmünster, Upper Austria) using a Tecan Spark 10M plate reader (Tecan Group Ltd., Männedorf, Switzerland). Each well contained a final volume of 200 µL, consisting of 180 µL assay buffer (20 mM TRIS‐HCl pH 7.5, 20 mM NaCl, 0.1 mM EDTA, 1 mM DTT), 5 µL enzyme solution (final concentration 75 nM), 10 µL inhibitor in DMSO (final concentration 20 µM) or pure DMSO as a negative control, and 5 µL substrate solution in DMSO (final concentration 25 µM). The reaction was monitored for 10 min at 25°C, with fluorescence readings taken at 30‐s intervals. The substrate was excited at 335 nm, and fluorescence emission was recorded at 493 nm. The remaining enzymatic activity was determined by comparing the substrate hydrolysis rate in reaction mixtures containing the inhibitors to that of the DMSO control. Only the first 5 min of the fluorescence curves (Supporting Information S1: Figure S3) were used for the calculation to obtain the linear part.

SARS‐CoV‐2 Mpro [3] = molecular target: T1, SARS‐CoV‐2 Mpro; experiment: Microscale thermophoresis (MST) binding check and binding affinity; conditions: for RA (Response Amplitude): MST binding affinity experiment, RA ≥ 1.5 indicative of binding; for Kd: MST, labeled Mpro 35 nM, 16 1:1 serial dilutions, two independent experiments, read-out: K d ± K d confidence
SARS‐CoV‐2 Mpro [4] = molecular target: T1, SARS‐CoV‐2 Mpro; conditions: non‐covalent inhibitors; cited from earlier work
SARS-CoV-1 = conditions: cited from earlier work
[5] = test system: virus‐infected VeroE6 cells; conditions: plaque reduction; cited from earlier work
[6] = test system: virus‐infected VeroE6 cells; conditions: cytopathic effect (CPE) inhibition; cited from earlier work
infected cells = conditions: cited from earlier work

Structure (SMILES)	Effect on enzyme activity (in words) (SARS‐CoV‐2 Mpro [2])	remaining activity at 20 µM (SARS‐CoV‐2 Mpro [2])	RA (Response Amplitude) (SARS‐CoV‐2 Mpro [3])	Kd (SARS‐CoV‐2 Mpro [3])	further results
O=C(NC1CCNCC1)c1n[nH]cc1NC(=O)c1c(Cl)cccc1Cl [AT7519, N‐(4‐piperidinyl)‐4‐(2,6‐dichlorobenzoylamino)‐1H‐ Pyrazole‐3‐Carboxamide]					EC50 [1]: 25.2 µM
Cc1ccc(C(=O)NCCCNC(=O)c2ccccn2)cc1C [compound 7]	no effect on the catalytic activity	105%	3.4	2.8 ± 0.9 µM	
CCOc1cccc(-c2nn3c(-c4cccnc4)nnc3s2)c1 [compound 8]	no effect on the catalytic activity	101%	4.7	23.9 ± 7.4 µM	
Cc1cc2ncn(S(=O)(=O)c3ccc(S(N)(=O)=O)cc3)c2cc1C [compound 9]	no effect on the catalytic activity	106%	2.7	39 ± 23.4 µM	
O=C(c1c[nH]c(=O)[nH]c1=O)N1CCN(c2ccc(Cl)c(Cl)c2)CC1 [compound 23]					IC50 (SARS‐CoV‐2 Mpro [4]): 5.1 ± 0.63 µM
CCC(C)(C)NC(=O)[C@@H](c1ccn(C)c1)N(C(=O)Cn1nnc2ccccc21)c1ccc(NC(C)=O)cc1 [compound 42]					IC50 (SARS-CoV-1): 6.2 µM
O=C(Cn1nnc2ccccc21)N(Cc1cccc(Cl)c1)c1ccc(-c2c[nH]cn2)cc1 [compound 47]					EC50 [5]: 0.56 µM; EC50 [6]: 0.5 µM
O=C(NCc1cccs1)[C@@H]1CN(C(=O)c2cccnc2)CCN1c1ccc(Cl)c(Cl)c1 [compound 51]					EC50 (infected cells): ~1.1 µM; IC50 (SARS‐CoV‐2 Mpro [4]): ~0.4 µM
